According to patent publication US20260028336A1 (Arcus Biosciences, Inc., priority 2022, published 2026):

What was measured:
Jurkat cells = test: IL-2 secretion assay in CD3/CD28-activated Jurkat cells (AlphaLISA); assay type: cell-based; conditions: Homo sapiens, CD3/CD28 T Cell Activator, 24 h, IL-2 AlphaLISA
Procedure, shortened: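 Jurkat cells (50,000/well) were preincubated 1 h at 37° C with compound in a 16-point 1:2 series spanning 10 μM to 300 pM final. Cells were then activated with CD3/CD28 T cell activator, and secreted IL-2 was read by AlphaLISA. EC50 came from 4-parameter logistic fits.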

Cbl-b = target: T1, Cbl-b (Homo sapiens, UniProt Q13191); test: Cbl-b probe displacement HTRF binding assay; conditions: 0.4 nM biotinylated Cbl-b, 150 nM BODIPY probe
T1 construct: biotin (biotinylated)
Procedure, shortened: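 Biotinylated Cbl-b was preincubated with compound for 60 min at room temperature in HEPES/NaCl/Triton/TCEP/BSA buffer. BODIPY probe was added for 15 min, followed by streptavidin-terbium, and the HTRF signal was read. Displacement was normalised to DMSO and no-protein controls, and affinity was obtained from a four-parameter dose-response fit.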

T1 sequence (Q13191 whole entry, species assumed): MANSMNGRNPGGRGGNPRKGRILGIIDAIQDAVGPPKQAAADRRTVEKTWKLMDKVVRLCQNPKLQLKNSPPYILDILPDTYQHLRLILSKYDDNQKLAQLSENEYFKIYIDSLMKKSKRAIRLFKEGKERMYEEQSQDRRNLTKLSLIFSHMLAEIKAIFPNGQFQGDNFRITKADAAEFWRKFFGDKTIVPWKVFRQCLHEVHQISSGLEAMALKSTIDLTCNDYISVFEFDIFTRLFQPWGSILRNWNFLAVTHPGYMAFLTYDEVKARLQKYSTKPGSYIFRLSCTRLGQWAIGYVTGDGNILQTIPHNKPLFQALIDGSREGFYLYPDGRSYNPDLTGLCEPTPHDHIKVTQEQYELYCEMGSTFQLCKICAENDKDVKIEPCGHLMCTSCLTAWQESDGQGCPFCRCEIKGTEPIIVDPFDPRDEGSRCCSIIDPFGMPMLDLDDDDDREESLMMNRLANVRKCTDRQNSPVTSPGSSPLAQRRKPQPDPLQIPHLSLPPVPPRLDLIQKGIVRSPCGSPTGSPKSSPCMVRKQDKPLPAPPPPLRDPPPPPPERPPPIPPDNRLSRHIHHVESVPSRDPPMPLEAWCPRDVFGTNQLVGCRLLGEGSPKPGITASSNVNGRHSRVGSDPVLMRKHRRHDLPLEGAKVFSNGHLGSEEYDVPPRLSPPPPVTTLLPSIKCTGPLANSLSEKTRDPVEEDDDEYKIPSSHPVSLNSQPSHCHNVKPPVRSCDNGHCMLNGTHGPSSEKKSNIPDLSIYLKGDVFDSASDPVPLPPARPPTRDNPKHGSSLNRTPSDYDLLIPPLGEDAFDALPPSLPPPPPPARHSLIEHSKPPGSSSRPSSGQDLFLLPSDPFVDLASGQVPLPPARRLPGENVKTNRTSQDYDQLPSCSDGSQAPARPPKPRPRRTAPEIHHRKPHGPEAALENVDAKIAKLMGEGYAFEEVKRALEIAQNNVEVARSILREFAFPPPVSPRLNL

With `CC(C)[C@H]1CNCCN1Cc1cc2c(C3CC3)cn(-c3cccc(C4(c5nncn5C)CC5(CC5)C4)c3)c(=O)c2[nH]1` [Example 72, 4-cyclopropyl-6-{3-[5-(4-methyl-4H-1,2,4-triazol-3-yl)spiro[2.3]hexan-5-yl]phenyl}-2-{[(2S)-2-(propan-2-yl)piperazin-1-yl]methyl}-1H,6H,7H-pyrrolo[2,3-c]pyridin-7-one] the EC50 (Jurkat cells) was 1000 to 5000 nM and the IC50 (Cbl-b) was 100 to 1000 nM.
Work on `CC1CC(c2cccc(-n3cc(C4CC4)c4cc(CN5C[C@@H]6C[C@H]5CN6)[nH]c4c3=O)c2)(c2nncn2C)C1` (stereo partly drawn) [Example 59, 4-cyclopropyl-2-{[(1S,4S)-2,5-diazabicyclo[2.2.1]heptan-2-yl]methyl}-6-{3-[3-methyl-1-(4-methyl-4H-1,2,4-triazol-3-yl)cyclobutyl]phenyl}-1H,6H,7H-pyrrolo[2,3-c]pyridin-7-one] yielded an EC50 (Jurkat cells) of over 5000 nM and an IC50 (Cbl-b) of under 100 nM.
With `Cn1nncc1-c1c[nH]c2c(=O)n(-c3cccc([C@]4(c5nncn5C)C[C@@H](C)C4)c3)cc(C3CC3)c12` [Example 133, 4-Cyclopropyl-3-(1-methyl-1H-1,2,3-triazol-5-yl)-6-{3-[(1R,3S)-3-methyl-1-(4-methyl-4H-1,2,4-triazol-3-yl)cyclobutyl]phenyl}-1H,6H,7H-pyrrolo[2,3-c]pyridin-7-one] the EC50 (Jurkat cells) was over 5000 nM and the IC50 (Cbl-b) was under 100 nM.
For `C[C@H]1CCCN(Cc2cc3c(C4CC4)cn(-c4cc(C(C)(C)c5nncn5C)ccn4)c(=O)c3[nH]2)C1` [Example 160, 2—{[(S)-3-methyl-1-piperidyl]methyl}-4-cyclopropyl-6-{4-[1-methyl-1-(4-methyl-4H-1,2,4-triazol-3-yl)ethyl]-2-pyridyl}-1,6-dihydro-1,6-diaza-7-indenone], the EC50 (Jurkat cells) was 100 to 1000 nM and the IC50 (Cbl-b) was 100 to 1000 nM.
`C[C@H]1CCCN(Cc2cc3c(C4CC4)cn(-c4cccc(C5(c6nncn6C)CC(F)(F)C5)c4)c(=O)c3[nH]2)C1` [Example 78, 4-cyclopropyl-6-[3-[3,3-difluoro-1-(4-methyl-1,2,4-triazol-3-yl)cyclobutyl]phenyl]-2-[[(3S)-3-methylpiperidin-1-yl]methyl]-1H-pyrrolo[2,3-c]pyridin-7-one] showed an EC50 (Jurkat cells) of under 100 nM and an IC50 (Cbl-b) of under 100 nM.
In the case of `CCO[C@H]1C[C@](c2cccc(-n3cc(C4CC4)c4cc(CN5CCC[C@H](C)C5)[nH]c4c3=O)c2)(c2nncn2C)C1` [Example 98, trans-4-cyclopropyl-6-[3-[3-ethoxy-1-(4-methyl-1,2,4-triazol-3-yl)cyclobutyl]phenyl]-2-[[(3S)-3-methylpiperidin-1-yl]methyl]-1H-pyrrolo[2,3-c]pyridin-7-one], the EC50 (Jurkat cells) is reported as under 100 nM and the IC50 (Cbl-b) is reported as under 100 nM.
With `C[C@H]1CCCN(Cc2cc3c(C4CC4)cn(-c4cccc([C@]5(c6nncn6C(F)F)C[C@H](F)C5)c4)c(=O)c3[nH]2)C1` [Example 148, 2—{[(S)-3-methyl-1-piperidyl]methyl}-4-cyclopropyl-6-(m-{1-[4-(difluoromethyl)-4H-1,2,4-triazol-3-yl]-3-fluorocyclobutyl}phenyl)-1,6-dihydro-1,6-diaza-7-indenone] the EC50 (Jurkat cells) was under 100 nM and the IC50 (Cbl-b) was under 100 nM.
`CO[C@H]1C[C@](c2cccc(-n3cc(C4CC4)c4cc(CN5CCC6(CC6)C5)[nH]c4c3=O)c2)(c2nncn2C)C1` [Example 100] gave an EC50 (Jurkat cells) of 100 to 1000 nM and an IC50 (Cbl-b) of under 100 nM.
In the case of `C[C@H]1CCCN(Cc2cc3c(C4CC4)cn(-c4cccc([C@]5(c6nncn6C)C[C@H](F)C5)c4)c(=O)c3[nH]2)C1` [Example 130, trans-4-cyclopropyl-6-[3-[3-fluoro-1-(4-methyl-1,2,4-triazol-3-yl)cyclobutyl]phenyl]-2-[[(3S)-3-methylpiperidin-1-yl]methyl]-1H-pyrrolo[2,3-c]pyridin-7-one], the EC50 (Jurkat cells) is reported as under 100 nM and the IC50 (Cbl-b) is reported as under 100 nM.
`Cn1cnnc1[C@]1(c2cccc(-n3cc(C4CC4)c4[nH]c(=O)[nH]c4c3=O)c2)C[C@H](C)C1` (single isomer, unassigned) [Example 117, 7-cyclopropyl-5-[3-[cis-3-methyl-1-(4-methyl-1,2,4-triazol-3-yl)cyclobutyl]phenyl]-1,3-dihydroimidazo[4,5-c]pyridine-2,4-dione] showed an EC50 (Jurkat cells) of over 5000 nM and an IC50 (Cbl-b) of 100 to 1000 nM.
Work on `Cn1cnnc1C1(c2cccc(-n3cc(C4CC4)c4cc(CNc5ccc(Cl)cc5F)[nH]c4c3=O)c2)CC(F)(F)C1` [Example 90, 2-{[(4-chloro-2-fluorophenyl)amino]methyl}-4-cyclopropyl-6-{3-[3,3-difluoro-1-(4-methyl-4H-1,2,4-triazol-3-yl)cyclobutyl]phenyl}-1H,6H,7H-pyrrolo[2,3-c]pyridin-7-one] yielded an EC50 (Jurkat cells) of over 5000 nM and an IC50 (Cbl-b) of over 5000 nM.
Molecule `Cn1cnnc1CC1(c2cccc(-n3cc(C4CC4)c4cc(CN5CCC6(CC6)C5)[nH]c4c3=O)c2)COC1` [Example 76, 2-({5-azaspiro[2.4]heptan-5-yl}methyl)-4-cyclopropyl-6-(3-{3-[(4-methyl-4H-1,2,4-triazol-3-yl)methyl]oxetan-3-yl}phenyl)-1H,6H,7H-pyrrolo[2,3-c]pyridin-7-one] has an EC50 (Jurkat cells) of 100 to 1000 nM and an IC50 (Cbl-b) of under 100 nM.
Work on `C[C@H]1CCCN(Cc2cc3c(C4CC4)cn(-c4cccc([C@]5(c6nccn6C)C[C@H](OC(F)F)C5)c4)c(=O)c3[nH]2)C1` [Example 97, 4-cyclopropyl-6-[3-[3-(difluoromethoxy)-1-(1-methylimidazol-2-yl)cyclobutyl]phenyl]-2-[[(3S)-3-methylpiperidin-1-yl]methyl]-1H-pyrrolo[2,3-c]pyridin-7-one] yielded an EC50 (Jurkat cells) of 100 to 1000 nM and an IC50 (Cbl-b) of under 100 nM.
With `Cn1cnnc1[C@]1(c2cccc(-n3cc(C#N)c4cc[nH]c4c3=O)c2)C[C@H](C)C1` [Example 38, 7-oxo-6-{3-[(1r,3s)-3-methyl-1-(4-methyl-4H-1,2,4-triazol-3-yl)cyclobutyl]phenyl}-1H,6H,7H-pyrrolo[2,3-c]pyridine-4-carbonitrile] the EC50 (Jurkat cells) was 1000 to 5000 nM and the IC50 (Cbl-b) was under 100 nM.
Work on `Cn1cnnc1C1(c2cccc(-n3cc(C4CC4)c4cc(CN5CCC[C@@H]5CO)[nH]c4c3=O)c2)CC(F)(F)C1` [Example 82, 4-cyclopropyl-6-{3-[3,3-difluoro-1-(4-methyl-4H-1,2,4-triazol-3-yl)cyclobutyl]phenyl}-2-{[(2R)-2-(hydroxymethyl)pyrrolidin-1-yl]methyl}-1H,6H,7H-pyrrolo[2,3-c]pyridin-7-one] yielded an EC50 (Jurkat cells) of 1000 to 5000 nM and an IC50 (Cbl-b) of under 100 nM.
`CC1CC(c2cccc(-n3cc(C4CC4)c4cc(CN5CCN(C)[C@H](C)C5)[nH]c4c3=O)c2)(c2nncn2C)C1` (stereo partly drawn) [Example 61, 4-cyclopropyl-2-{[(3R)-3,4-dimethylpiperazin-1-yl]methyl}-6-{3-[3-methyl-1-(4-methyl-4H-1,2,4-triazol-3-yl)cyclobutyl]phenyl}-1H,6H,7H-pyrrolo[2,3-c]pyridin-7-one] gave an EC50 (Jurkat cells) of 1000 to 5000 nM and an IC50 (Cbl-b) of 100 to 1000 nM.
`CC1CC(c2cccc(-n3cc(C4CC4)c4cc(CNC5(C(F)(F)F)CC5)[nH]c4c3=O)c2)(c2nncn2C)C1` (stereo not shown) [Example 41, 4-cyclopropyl-6-{3-[(1r,3s)-3-methyl-1-(4-methyl-4H-1,2,4-triazol-3-yl)cyclobutyl]phenyl}-2-({[1-(trifluoromethyl)cyclopropyl]amino}methyl)-1H,6H,7H-pyrrolo[2,3-c]pyridin-7-one] was tested, and the EC50 (Jurkat cells) was 1000 to 5000 nM and the IC50 (Cbl-b) was 100 to 1000 nM.
Work on `Cn1cnnc1C1(c2cccc(-n3cc(C4CC4)c4cc(CN[C@@H]5CCOC5)[nH]c4c3=O)c2)CC(F)(F)C1` [Example 91, 4-cyclopropyl-6-{3-[3,3-difluoro-1-(4-methyl-4H-1,2,4-triazol-3-yl)cyclobutyl]phenyl}-2-{[(oxolan-3-yl)amino]methyl}-1H,6H,7H-pyrrolo[2,3-c]pyridin-7-one] yielded an EC50 (Jurkat cells) of over 5000 nM and an IC50 (Cbl-b) of 100 to 1000 nM.
`CC1CC(c2cccc(-n3cc(C4CC4)c4cc[nH]c4c3=O)c2)(c2nncn2C)C1` (stereo not shown) [Example 4, 4-cyclopropyl-6-[3-[3-methyl-1-(4-methyl-1,2,4-triazol-3-yl)cyclobutyl]phenyl]-1H-pyrrolo[2,3-c]pyridin-7-one] was tested, and the EC50 (Jurkat cells) was 1000 to 5000 nM and the IC50 (Cbl-b) was 100 to 1000 nM.
`CC1CC(c2cccc(-n3cc(C4CC4)c4cc(CN(C)C5CC5)[nH]c4c3=O)c2)(c2nncn2C)C1` (stereo not shown) [Example 54, 4-cyclopropyl-2-{I[cyclopropyl(methyl)amino]methyl}-6-{3-[3-methyl-1-(4-methyl-4H-1,2,4-triazol-3-yl)cyclobutyl]phenyl}-1H,6H,7H-pyrrolo[2,3-c]pyridin-7-one] was tested, and the EC50 (Jurkat cells) was 100 to 1000 nM and the IC50 (Cbl-b) was under 100 nM.
For `CC1CC(c2cccc(-n3cc(C4CC4)c4cc(CNCCOC(F)(F)F)[nH]c4c3=O)c2)(c2nncn2C)C1` (stereo not shown) [Example 46, 4-cyclopropyl-6-{3-[3-methyl-1-(4-methyl-4H-1,2,4-triazol-3-yl)cyclobutyl]phenyl}-2-({[2-(trifluoromethoxy)ethyl]amino}methyl)-1H,6H,7H-pyrrolo[2,3-c]pyridin-7-one], the EC50 (Jurkat cells) was 100 to 1000 nM and the IC50 (Cbl-b) was under 100 nM.
In the case of `CC1CC(c2cccc(-n3cc(C4CC4)c4cc(CN[C@H]5CCOC5)[nH]c4c3=O)c2)(c2nncn2C)C1` (stereo partly drawn) [Example 56, 4-cyclopropyl-2-({[(3S)-oxolan-3-yl]amino}methyl)-6-{3-[(1r,3s)-3-methyl-1-(4-methyl-4H-1,2,4-triazol-3-yl)cyclobutyl]phenyl}-1H,6H,7H-pyrrolo[2,3-c]pyridin-7-one], the EC50 (Jurkat cells) is reported as 100 to 1000 nM and the IC50 (Cbl-b) is reported as under 100 nM.
`CC1CC(c2cccc(-n3cc(C4CC4)c4cc(CN(C)C)[nH]c4c3=O)c2)(c2nncn2C)C1` (stereo not shown) [Example 55, 4-cyclopropyl-2-[(dimethylamino)methyl]-6-{3-[3-methyl-1-(4-methyl-4H-1,2,4-triazol-3-yl)cyclobutyl]phenyl}-1H,6H,7H-pyrrolo[2,3-c]pyridin-7-one] gave an EC50 (Jurkat cells) of under 100 nM and an IC50 (Cbl-b) of under 100 nM.
